Laboratory results published in patent publication US12138303B2, “Staphylococcus pseudintermedius virulence factor compositions” (UNIVERSITY OF TENNESSEE RESEARCH FOUNDATION, priority 2017, dated 2024).

Assays:
canine blood PMNs [1] = test: Phagocytosis of pHrodo-labeled S. pseudintermedius 08-1661 in dog blood (flow cytometry); format: cell-based; conditions: 37° C., adenosine 15 μM, ADP analogue 500 μM, A2A receptor antagonist
Experimental: (§1) Bacteria for the phagocytosis assay were labeled using a pHrodo™ phagocytosis particle labeling kit (Life technologies, P35369) (10). Briefly, overnight cultures of S. pseudintermedius 06-3228 and 08-1661 were diluted 1:100 into fresh TSB and grown for 3 hours at 37° C. Bacteria were centrifuged, washed twice, and diluted to 20 mg/mL wet weight in 0.1 M sodium bicarbonate, pH 8.5, and pHrodo™ dye was dissolved in DMSO at 10 mM. The bacteria were suspended at a final dye concentration of 0.5 mM. The inhibitory effect of SpAdsA on canine neutrophils was evaluated in blood samples by exposing the EDTA-whole blood samples to pHrodo™ dye-labeled S. pseudintermedius 06-3228 and 08-1661 for 30 and 60 minutes at 37° C. The RBCs were lysed using Red Blood Cell Lysing Buffer Hybri-Max™ (Sigma-Aldrich, Cat NO. R7757) followed by centrifugation and washing. The final cell pellet, containing leukocytes, was suspended in wash buffer and analyzed using a flow cytometer equipped with a 488-nm argon ion laser (Attune acoustic focusing cytometry).

[2] = test system: S. pseudintermedius 06-3228; test: Bacterial survival in canine blood; format: cell-based, Staphylococcus pseudintermedius; conditions: adenosine 15 μM; 5′-(α, β-methylene) diphosphate 500 μM; ZM241385; 1, 1.5, 2 hours; versus bacteria alone
Experimental: (§2) Overnight cultures of S. pseudintermedius 06-3228 and 08-1661 were diluted 1:100 into fresh TSB and grown for 3 hours at 37° C. Staphylococci were centrifuged 9000×g, washed twice, and diluted in PBS to yield an O.D 600 of 0.5. Then 100 μl of 4×10^6 CFU per ml of bacteria were mixed with 500 μl of fresh canine blood, collected in EDTA. The samples were incubated at 37° C. with 100 rpm shaking and harvested at 60, 90 and 120 minutes. They were incubated on ice for 30 minutes in 1 ml of Red Blood Cell Lysing Buffer Hybri-Max™ (Sigma-Aldrich, Cat NO. R7757), then bacteria were pelleted at 9,000×g at 4° C. and plated on tryptic soy agar (TSA) for enumeration of viable bacteria.

[3] = test system: S. pseudintermedius 08-1661; test: Bacterial survival in canine blood; format: cell-based, Staphylococcus pseudintermedius; conditions: adenosine 15 μM; 5′-(α, β-methylene) diphosphate 500 μM; ZM241385; 1, 1.5, 2 hours; versus bacteria alone
Experimental: as §2

canine blood PMNs [4] = test: Phagocytosis of pHrodo-labeled S. pseudintermedius 06-3228 in dog blood (flow cytometry); format: cell-based; conditions: 37° C., adenosine 15 μM, ADP analogue 500 μM, ZM241385 1 μM
Experimental: as §1

canine PMNs [5] = test: Binding of biotin labelled wild type and attenuated LukS and LukF to canine PMNs; format: cell-based, dog; conditions: biotin labelled proteins, 30 minutes
Experimental: Purified recombinant S. pseudintermedius wild type and attenuated LukS and LukF at 500 μg/ml in PBS (pH 7.2) were incubated with 50 μl of 10 mM EZ-Link Sulfo-NHS-LC-Biotin reagent (equal to 20-fold molar excess of biotin) (Thermo Scientific, Cat No. 21327) for 30 min at room temperature. Excess biotin was removed using an Amicon Ultra-0.5 Centrifugal Filter Unit with a 30 kDa molecular weight cut-off (Milipore sigma, Cat No. UFC5030). The biotin-labeled proteins were stored at −20° C. until further use.
To test the binding of wild type and attenuated LukS and LukF to canine PMNs, biotin labelled recombinant proteins were incubated with PMNs from a clinical healthy dog for 30 minutes at room temperature, the cells were washed, then PMNs were incubated with 1:500 dilution of avidin-FITC conjugate (Sigma-Aldrich, A2050) at room temperature for 30 minutes in the dark. Unbound conjugate was removed by washing and the amount of binding was determined using a flow cytometer (Attune acoustic focusing cytometer) by gating on PMNs based on their side and forward scatter properties.

clinically normal dogs = test: Antibody response of dogs injected with SpEX-M (ELISA); format: in vivo, dog; conditions: 20 μg subcutaneous, three weekly injections; sera days −7, 8, 15, 29; versus pre-injection sera
Experimental: Recombinant SpEX-M (SEQ ID NO:12) produced in E. coli was purified using affinity chromatography (as above) and endotoxin concentration was measured using a ToxinSensor™ Chromogenic LAL Endotoxin Assay Kit (Genscript, Cat. No. L00350). Recombinant SpEX-M at 20 μg each/0.5 cc in phosphate buffered saline (PBS) (pH 7.2) were injected in the lateral thorax by the subcutaneous route, into three clinically normal dogs. Injections were given once every 7 days for a total of three injections with a control dog receiving PBS (pH 7.2) only. Blood (6 cc) was collected from a jugular vein 4 times, on days −7, 8, 15 and 29 (relative to injections). […]
For measurement of recombinant protein antigenicity, SpEX and SpEX-M were coated separately onto ELISA plates (Corning, Cat No. 3590) at 2 μg/ml in PBS. The plates were washed with 0.05% PBS-T and incubated with two-fold serial diluted serum from dogs (injected with recombinant proteins) for 1 h at 37° C., then bound IgG was detected using HRP-conjugated goat anti-dog IgG-heavy and light chain (Bethyl Laboratories, Inc. Cat No. A40-123-1). ELISA assays plates were washed three times with PBS-T between all incubations, bound antibodies were detected using TMB substrate (Thermo Scientific, Cat No. N301), reactions were stopped with 0.18 M sulphuric acid and optical density read at 450 nm on a plate reader (Bio TEK, EL800). […]

canine PBMCs = test: PBMCs permeability assay (Sytox green); format: cell-based, dog; conditions: 100 μg, 30 min, relative to SpEX
Experimental: (§3) PMNs and PBMCs were separated as previously described. PMNs and PBMCs were incubated with recombinant proteins (SpEX and SpEX-M) at concentration of 100 μg in a volume of 500 μl in RPMI medium supplemented with 10% fetal bovine serum in a 5% CO2 incubator for 30 min. The supernatant of S. pseudintermedius 06-3228 was harvested at log phase to test the toxic effect of secreted SpEX. PMNs and PBMCs were stained with 1 Sytox green (Life Technologies, Inc. Cat No. 1776406) for 30 min, washed twice with PBS (pH 7.2) and analyzed using a flow cytometer (Attune acoustic focusing cytometer) by gating on PMNs and PBMCs based on their side and forward scatter properties.
(§4) To determine the protective effect of canine anti-SpEX-M on PMNs and PBMCs, recombinant S. pseudintermedius SpEX at concentration of 100 μg/ml in PBS (pH 7.2) was incubated for 30 minutes at 37° C. with serum from SpEX-M injected dogs. The experiment was run in duplicate and a p-value of <0.05 was considered significant.
(§5) For flow cytometry analysis the cut-off for cell death was established using leukocytes incubated without SpEX. Mean fluorescent intensity was determined from all gated cells.

canine PMNs [6] = test: PMNs permeability assay (Sytox green); format: cell-based, dog; conditions: 100 μg, 30 min, relative to SpEX
Experimental: as §3, §4, §5

canine B cells [7] = test: B cell death (Sytox green, flow cytometry); format: cell-based, dog; conditions: 3.5 h incubation; ± SEM
Experimental: (§6) A total of 100 μg of purified recombinant SpsQ or SpsQ-M was mixed with isolated peripheral blood mononuclear cells (PBMC) in 1 ml of RPMI medium supplemented with 10% fetal bovine serum and incubated for 1.5 h at 37° C. in a 5% CO2 incubator. To detect early phases of B cell apoptosis, phosphatidylserine was measured on the surface of cells using pacific blue-conjugated annexin (Thermo Scientific, USA Cat No. A35136). B cells were identified using phycoerythrin (PE) conjugated mouse anti-canine CD21 (clone: CA2.1D6) (BIO-RAD, USA Cat No. MCA1781PE) that recognizes canine CD21 (complement receptor type 2) on mature B lymphocytes. Stained B cells were analyzed using a flow cytometer (Attune acoustic focusing cytometer). B cells were also incubated with the same recombinant proteins as described above but for 3.5 h in order to detect B cell death. Cells were stained with Sytox green (Life Technologies, Inc., USA Cat No. 1776406) and PE-conjugated mouse anti-canine CD21. Gates were placed on cells positive for PE and these B cells were analyzed by flow cytometry.
(§7) For flow cytometry analysis the cut-off for apoptosis or cell death was established using leukocytes incubated without SpsQ. Mean fluorescent intensity was determined from all B cells.

dog IgM = test: ELISA reactivity with dog IgM; format: binding; conditions: compared to SpsQ and SpA
Experimental: (§8) To test the reactivity of serum from a dog with chronic pyoderma, S. aureus SpA and S. pseudintermedius SpsQ and SpsQ-M were coated on ELISA plates (Corning, USA Cat No. 3590) at 2 μg/ml in PBS. They were incubated with serum at a dilution of 1:2000. Bound IgG, IgM, and IgA were detected by HRP-goat anti-dog IgG-heavy and light chain (Bethyl Laboratories, Inc., USA Cat No. A40-123-1), HRP-goat anti-dog IgM μ chain (Bethyl Laboratories, Inc., USA Cat No. A40-116-2), HRP-goat anti-dog IgA (Bethyl Laboratories, Inc., USA Cat No. A40-104P) at a dilution of 1:8000 in PBS-T. Dog whole IgG molecule (Rockland, USA Cat No. 004-0102-1000) was used for comparison to measure non-specific IgG binding.

dog IgA = test: ELISA reactivity with dog IgA; format: binding; conditions: compared to SpsQ and SpA
Experimental: as §8

canine B cells [8] = test: B cell apoptosis (annexin, flow cytometry); format: cell-based, dog; conditions: 1.5 h
Experimental: as §6, §7

dog IgG = test: ELISA reactivity with dog serum / dog IgG; format: binding; conditions: compared to SpsQ and SpA
Experimental: as §8

[9] = test system: chicken anti-protein A antibody; test: ELISA antigenicity with HRP-chicken anti-protein A antibody; format: binding; conditions: coated protein
Experimental: For measurement of the antigenicity of recombinant proteins, affinity-purified SpsQ and SpsQ-M were coated on ELISA plates (Corning, USA Cat No. 3590) at […] in PBS (pH 7.2). The plates were washed with PBS-T and incubated with HRP-chicken anti-protein A antibody (Gallus Immunotech, USA Cat No. APA) for 1 h at 37° C., then washed. For this and all subsequent ELISA assays, plates were washed three times with PBS-T between all incubations, bound antibodies were detected using TMB substrate (Thermo Scientific, USA Cat No. N301), reactions were stopped with 0.18 M sulphuric acid and optical density read at 450 nm on a plate reader (Bio TEK, USA Cat No. EL800). The experiment was repeated at least three times and a p-value of <0.05 was considered significant, which was the same for all the experiments unless mentioned otherwise.

Row | Compound | phagocytosis, mean MFI (canine blood PMNs [1]; 08-1661, 30 minutes) | phagocytosis, mean MFI (canine blood PMNs [1]; 08-1661, 60 minutes) | survival of S. pseudintermedius 06-3228 in canine blood [2] | survival of S. pseudintermedius 08-1661 in canine blood [3] | phagocytosis, mean MFI (canine blood PMNs [4]; 06-3228, 30 minutes) | phagocytosis, mean MFI (canine blood PMNs [4]; 06-3228, 60 minutes) | binding to canine leukocytes (canine PMNs [5]) | also measured
1 | Nc1nc(NCCc2ccc(O)cc2)nc2nc(-c3ccco3)nn12 [ZM241385] | 1,306,729 | 2,924,203 | significantly decreased at all of time points | significantly decreased at all of time points | 241513 | no significant difference | – | –
2 | Nc1ncnc2c1ncn2[C@@H]1O[C@H](CO)[C@@H](O)[C@H]1O [adenosine] | 375,737 | 764,921 | significantly promoted | significantly promoted | 89,583 | 711,453 | – | –
3 | LukF-M: attenuated Leukotoxin F with substitutions S59D and N65A | – | – | – | – | – | – | bound to canine leukocytes without causing any significant killing | –
4 | LukS-M: attenuated Leukotoxin S with substitutions T57F, K128A and S239A | – | – | – | – | – | – | bound to canine leukocytes without causing any significant killing | –
5 | SpEX-M: attenuated SpEX with substitutions D 102A, T125P, T206P and R217A | – | – | – | – | – | – | – | IgG against S. pseudintermedius SpEX-M and SpEX in sera of injected dogs (clinically normal dogs): reached the highest level on day 29; killing effect on PBMCs of dogs (canine PBMCs): diminished killing effect; killing effect on PMNs (canine PMNs [6]): diminished killing effect
6 | SpsQ-M: attenuated non-toxigenic S. pseudintermedius protein A with Q5K, Q6K, D32A, D33A in each Ig binding domain | – | – | – | – | – | – | – | Sytox MFI reduction compared to that of SpsQ (canine B cells [7]): 519065±128292; binding to IgM (dog IgM): significantly lower binding; binding to IgA (dog IgA): significantly lower binding; apoptotic effect on B cells (canine B cells [8]; 100 μg protein, PBMC): low apoptotic effect; mean+/−SEM fluorescent intensity (MFI) difference between SpsQ and SpsQ-M (canine B cells [8]): 2052±285.2; binding to commercial dog IgG (dog IgG): significantly lower binding; reactivity with chicken anti-protein A (antigenicity) [9]: strong reactivity
